We go through 33 compounds from US11439622B2 (OXFORD UNIVERSITY INNOVATION LIMITED, priority 2015, dated 2022).

Like-named read-outs stand apart in the source and are kept apart here.

Holding throughout (type): biochemical
In assay [1] the target is VIM-2 (Veronese metallo-β-lactamase-2) (Escherichia coli, UniProt Q5U7L7). Briefly: Enzyme inhibition assay, VIM-2. The method, then: (§1) The biological activity of the compounds of the present invention was tested using standard assay protocols.^7 The following representative enzymes NDM-1 (New Delhi metallo-β-lactamase-1), IMP-1 (Imipenemase-1) and VIM-2 (Veronese metallo-β-lactamase-2) were selected from different clinically relevant B1 metallo-β-lactamases.

The target of another assay is IMP-1 (Imipenemase-1) (Serratia marcescens, UniProt P52699). The assay is described as follows: Enzyme inhibition assay, IMP-1. The protocol:
as §1

Assay [2] addresses NDM-1 (New Delhi metallo-β-lactamase-1) (Klebsiella pneumoniae, UniProt C7C422). Briefly: Enzyme inhibition assay, NDM-1. The method, then: as §1
The mark [3] stands for this setting: read-out: pIC50 VIM-2 (converted).
The mark [4] stands for this setting: read-out: pIC50 IMP-1 (converted).
[5] abbreviates: read-out: pIC50 NDM-1 (converted).

IMP-1 (Imipenemase-1), sequence (P52699 19-246, looked up, species assumed): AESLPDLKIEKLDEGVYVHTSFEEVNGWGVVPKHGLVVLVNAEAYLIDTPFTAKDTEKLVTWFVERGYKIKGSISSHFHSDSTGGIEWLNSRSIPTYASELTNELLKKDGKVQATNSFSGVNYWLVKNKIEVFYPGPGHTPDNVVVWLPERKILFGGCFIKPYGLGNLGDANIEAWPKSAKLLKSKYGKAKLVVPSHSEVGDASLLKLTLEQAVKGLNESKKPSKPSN
NDM-1 (New Delhi metallo-β-lactamase-1), sequence (C7C422 29-270, looked up, species assumed): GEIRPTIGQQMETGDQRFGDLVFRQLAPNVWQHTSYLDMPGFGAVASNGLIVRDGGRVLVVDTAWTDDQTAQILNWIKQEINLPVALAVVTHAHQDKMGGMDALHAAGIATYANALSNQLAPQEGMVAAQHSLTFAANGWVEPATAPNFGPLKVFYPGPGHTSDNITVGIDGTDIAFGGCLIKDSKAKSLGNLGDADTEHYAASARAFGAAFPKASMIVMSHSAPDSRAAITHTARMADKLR

Regarding `Cc1cccc2c(C3=CCN(C(=O)OC(C)(C)C)CC3)c(C(=O)O)[nH]c12` [Example 25, 3-(1-(tert-butoxycarbonyl)-1,2,3,6-tetrahydropyridin-4-yl)-7-methyl-1H-indole-2-carboxylic acid], the IC50 in assay [1] (setting [3]) was 2000 nM; on IMP-1 (Imipenemase-1) (setting [4]) it was 5.01 µM; in assay [2] (setting [5]), 31.6 nM.

Turning to `Cc1cccc2c(-c3cnn(C)c3)c(C(=O)O)[nH]c12` [Example 26, 7-methyl-3-(1-methyl-1H-pyrazol-4-yl)-1H-indole-2-carboxylic acid], the figures for the IC50 (in assay [1] (setting [3]); at IMP-1 (Imipenemase-1) (setting [4]); in assay [2] (setting [5])) were 2510 nM, 39.8 µM and 100 nM, respectively.

With `Cc1cccc2c(-c3ccccc3C#N)c(C(=O)O)[nH]c12` [Example 28, 3-(2-cyanophenyl)-7-methyl-1H-indole-2-carboxylic acid], the results for the IC50 (in assay [1] (setting [3]); on IMP-1 (Imipenemase-1) (setting [4]); in assay [2] (setting [5])) were 316 nM, 25.1 µM and 63.1 nM, respectively.

Turning to `Cc1cccc2c(-c3ccc(S(=O)(=O)N(C)C)cc3)c(C(=O)O)[nH]c12` [Example 29, 3-(4-(N,N-dimethylsulfamoyl)phenyl)-7-methyl-1H-indole-2-carboxylic acid], the figures for the IC50 (in assay [1] (setting [3]); at IMP-1 (Imipenemase-1) (setting [4]); in assay [2] (setting [5])) were 251 nM, 0.794 µM and 5.01 nM, respectively.

Turning to `CC(=O)Nc1ccc(-c2c(C(=O)O)[nH]c3c(C)cccc23)cc1` [Example 30, 3-(4-acetamidophenyl)-7-methyl-1H-indole-2-carboxylic acid], the IC50 in assay [1] (setting [3]) was 158 nM; on IMP-1 (Imipenemase-1) (setting [4]) it was 2.51 µM; in assay [2] (setting [5]) it was 20 nM.

Take `Cc1cccc2c(-c3cccc4[nH]ncc34)c(C(=O)O)[nH]c12` [Example 31, 3-(1H-indazol-4-yl)-7-methyl-1H-indole-2-carboxylic acid]: the IC50 in assay [1] (setting [3]) is 39.8 nM; on IMP-1 (Imipenemase-1) (setting [4]), 63.1 µM; in assay [2] (setting [5]), 63.1 nM.

Regarding `Cc1cccc2c(-c3ccc4cn[nH]c4c3)c(C(=O)O)[nH]c12` [Example 32, 3-(1H-indazol-6-yl)-7-methyl-1H-indole-2-carboxylic acid], the results for the IC50 (in assay [1] (setting [3]); on IMP-1 (Imipenemase-1) (setting [4]); in assay [2] (setting [5])) were 79.4 nM, 12.6 µM and 25.1 nM, respectively.

For the compound `Cc1cccc2c(-c3ccc(Cn4cncn4)cc3)c(C(=O)O)[nH]c12` [Example 33, 3-(4-((1H-1,2,4-triazol-1-yl)methyl)phenyl)-7-methyl-1H-indole-2-carboxylic acid], the results for the IC50 (in assay [1] (setting [3]); on IMP-1 (Imipenemase-1) (setting [4]); in assay [2] (setting [5])) were 251 nM, 2 µM and 5.01 nM, respectively.

In the case of `Cc1cccc2c(-c3ccc(Cn4cccn4)cc3)c(C(=O)O)[nH]c12` [Example 34, 3-(4-((1H-pyrazol-1-yl)methyl)phenyl)-7-methyl-1H-indole-2-carboxylicacid], the values for the IC50 (in assay [1] (setting [3]); at IMP-1 (Imipenemase-1) (setting [4]); in assay [2] (setting [5])) were 200 nM, 0.0501 µM and 10000 nM, respectively.

For `Cc1cccc2c(C3=CCNCC3)c(C(=O)O)[nH]c12` [Example 36, 7-methyl-3-(1,2,3,6-tetrahydropyridin-4-yl)-1H-indole-2-carboxylic acid], the figures for the IC50 (in assay [1]; against IMP-1 (Imipenemase-1); in assay [2]) were 39800 nM, more than 100 µM and 398 nM, respectively.

For the compound `Cc1cccc2c(-c3ccccc3)c(C(=O)O)[nH]c12` [Example 37, 7-methyl-3-phenyl-1H-indole-2-carboxylate], the IC50 was 398 nM in assay [1] (setting [3]), 10 µM at IMP-1 (Imipenemase-1) (setting [4]) and 31.6 nM in assay [2] (setting [5]).

On to `Cc1cccc2c(-c3ccc(-c4ccccc4)cc3)c(C(=O)O)[nH]c12` [Example 40, 3-([1,1′-biphenyl]-4-yl)-7-methyl-1H-indole-2-carboxylic acid], for which the IC50 was 251 nM in assay [1] (setting [3]), 1.58 µM on IMP-1 (Imipenemase-1) (setting [4]) and 15.8 nM in assay [2] (setting [5]).

As to `Cc1ccccc1-c1c(C(=O)O)[nH]c2c(C)cccc12` [Example 41, 7-methyl-3-(o-tolyl)-1H-indole-2-carboxylic acid], the figures for the IC50 (in assay [1] (setting [3]); at IMP-1 (Imipenemase-1) (setting [4]); in assay [2] (setting [5])) were 251 nM, 1.58 µM and 316 nM, respectively.

For the compound `Cc1cccc2c(-c3ccc(Cl)cc3)c(C(=O)O)[nH]c12` [Example 42, 3-(4-chlorophenyl)-7-methyl-1H-indole-2-carboxylic acid], the IC50 in assay [1] (setting [3]) was 251 nM; at IMP-1 (Imipenemase-1) (setting [4]) it was 10 µM; in assay [2] (setting [5]), 15.8 nM.

As to `Cc1cccc2c(-c3ccc(Cl)c(C(F)(F)F)c3)c(C(=O)O)[nH]c12` [Example 43, 3-(4-chloro-3-(trifluoromethyl)phenyl)-7-methyl-1H-indole-2-carboxylic acid], the IC50 in assay [1] (setting [3]) is 158 nM; on IMP-1 (Imipenemase-1) (setting [4]), 12.6 µM; in assay [2] (setting [5]) it was 31.6 nM.

On to `Cc1cccc2c(-c3cccc(C(F)(F)F)c3)c(C(=O)O)[nH]c12` [Example 44, 7-methyl-3-(3-(trifluoromethyl)phenyl)-1H-indole-2-carboxylic acid], for which the results for the IC50 (in assay [1] (setting [3]); at IMP-1 (Imipenemase-1) (setting [4]); in assay [2] (setting [5])) were 200 nM, 3.98 µM and 31.6 nM, respectively.

As to `Cc1cccc2c(-c3ccc(C4CC4)cc3)c(C(=O)O)[nH]c12` [Example 45, 3-(4-cyclopropylphenyl)-7-methyl-1H-indole-2-carboxylic acid], the IC50 is 316 nM in assay [1] (setting [3]), 3.98 µM at IMP-1 (Imipenemase-1) (setting [4]) and 31.6 nM in assay [2] (setting [5]).

As for `Cc1ccc2c(-c3ccc(S(N)(=O)=O)cc3)c(C(=O)O)[nH]c2c1` [Example 47, 6-methyl-3-(4-sulfamoylphenyl)-1H-indole-2-carboxylic acid], the IC50 in assay [1] (setting [3]) was 7940 nM; on IMP-1 (Imipenemase-1) (setting [4]), 50.1 µM; in assay [2] (setting [5]), 398 nM.

Take `Cc1ccc2c(-c3ccc(C(N)=O)cc3)c(C(=O)O)[nH]c2c1` [Example 48, 3-(4-carbamoylphenyl)-6-methyl-1H-indole-2-carboxylic acid]: the IC50 in assay [1] (setting [3]) was 3980 nM; at IMP-1 (Imipenemase-1) (setting [4]), more than 100 µM; in assay [2] (setting [5]), 631 nM.

On to `Cc1cccc2c(-c3ccc(F)cc3)c(C(=O)O)[nH]c12` [Example 49, 3-(4-fluorophenyl)-7-methyl-1H-indole-2-carboxylic acid], for which the IC50 in assay [1] (setting [3]) is 501 nM; at IMP-1 (Imipenemase-1) (setting [4]), 15.8 µM; in assay [2] (setting [5]) it was 31.6 nM.

For `COc1cccc2c(-c3ccc(F)cc3)c(C(=O)O)[nH]c12` [Example 50, 3-(4-fluorophenyl)-7-methoxy-1H-indole-2-carboxylic acid], the figures for the IC50 (in assay [1] (setting [3]); on IMP-1 (Imipenemase-1) (setting [4]); in assay [2] (setting [5])) were 1000 nM, 25.1 µM and 251 nM, respectively.

As to `CCCc1cccc2c(-c3ccc(F)cc3)c(C(=O)O)[nH]c12` [Example 52, 3-(4-fluorophenyl)-7-propyl-1H-indole-2-carboxylic acid], the IC50 in assay [1] (setting [3]) is 316 nM; on IMP-1 (Imipenemase-1) (setting [4]), 0.316 µM; in assay [2] (setting [5]) it was 20 nM.

In the case of `O=C(O)c1[nH]c2c(Cl)cccc2c1-c1ccc(F)cc1` [Example 54, 7-chloro-3-(4-fluorophenyl)-1H-indole-2-carboxylic acid], the IC50 in assay [1] (setting [3]) was 794 nM; on IMP-1 (Imipenemase-1) (setting [4]) it was 31.6 µM; in assay [2] (setting [5]), 251 nM.

Consider `COc1ccc2c(-c3ccc(F)cc3)c(C(=O)O)[nH]c2c1C` [Example 55, 3-(4-fluorophenyl)-6-methoxy-7-methyl-1H-indole-2-carboxylic acid], for which the figures for the IC50 (in assay [1] (setting [3]); on IMP-1 (Imipenemase-1) (setting [4]); in assay [2] (setting [5])) were 398 nM, 2 µM and 25.1 nM, respectively.

For the compound `Cc1ccc2c(-c3ccc(F)cc3)c(C(=O)O)[nH]c2c1C` [Example 56, 3-(4-fluorophenyl)-6,7-dimethyl-1H-indole-2-carboxylic acid], the IC50 is 398 nM in assay [1] (setting [3]), 7.94 µM on IMP-1 (Imipenemase-1) (setting [4]) and 31.6 nM in assay [2] (setting [5]).

For `CC(C)(C)c1cccc2c(-c3ccc(F)cc3)c(C(=O)O)[nH]c12` [Example 57, 7-(tert-butyl)-3-(4-fluorophenyl)-1H-indole-2-carboxylic acid], the IC50 in assay [1] (setting [3]) is 100 nM; on IMP-1 (Imipenemase-1) (setting [4]), 0.1 µM; in assay [2] (setting [5]), 79.4 nM.

Take `Cc1cc(F)cc2c(-c3ccc(F)cc3)c(C(=O)O)[nH]c12` [Example 58, 5-fluoro-3-(4-fluorophenyl)-7-methyl-1H-indole-2-carboxylic acid]: the IC50 in assay [1] (setting [3]) was 794 nM; on IMP-1 (Imipenemase-1) (setting [4]), 15.8 µM; in assay [2] (setting [5]), 31.6 nM.

On to `Cc1cc(C)c2[nH]c(C(=O)O)c(-c3ccc(F)cc3)c2c1` [Example 59, 3-(4-fluorophenyl)-5,7-dimethyl-1H-indole-2-carboxylic acid], for which the IC50 in assay [1] (setting [3]) was 501 nM; on IMP-1 (Imipenemase-1) (setting [4]), 25.1 µM; in assay [2] (setting [5]) it was 126 nM.

In the case of `COc1cc(C)c2[nH]c(C(=O)O)c(-c3ccc(F)cc3)c2c1` [Example 60, 3-(4-fluorophenyl)-5-methoxy-7-methyl-1H-indole-2-carboxylic acid], the IC50 in assay [1] (setting [3]) was 631 nM; on IMP-1 (Imipenemase-1) (setting [4]), more than 100 µM; in assay [2] (setting [5]), 126 nM.

Regarding `COCCc1cccc2c(-c3ccc(F)cc3)c(C(=O)O)[nH]c12` [Example 61, 3-(4-fluorophenyl)-7-(2-methoxyethyl)-1H-indole-2-carboxylic acid], the IC50 is 316 nM in assay [1] (setting [3]), 1.26 µM at IMP-1 (Imipenemase-1) (setting [4]) and 31.6 nM in assay [2] (setting [5]).

For `O=C(O)c1[nH]c2c(CCOc3ccccc3)cccc2c1-c1ccc(F)cc1` [Example 62, 3-(4-fluorophenyl)-7-(2-phenoxyethyl)-1H-indole-2-carboxylic acid], the figures for the IC50 (in assay [1] (setting [3]); on IMP-1 (Imipenemase-1) (setting [4]); in assay [2] (setting [5])) were 158 nM, 0.316 µM and 5.01 nM, respectively.

For `Cc1cccc2c(-c3ccccn3)c(C(=O)O)[nH]c12` [Example 63, 7-methyl-3-(pyridin-2-yl)-1H-indole-2-carboxylic acid], the IC50 was 1000 nM in assay [1] (setting [3]), more than 100 µM on IMP-1 (Imipenemase-1) (setting [4]) and 316 nM in assay [2] (setting [5]).

Consider `Cc1c(Oc2ccccc2)ccc2c(-c3ccc(F)cc3)c(C(=O)O)[nH]c12` [Example 64, 3-(4-fluorophenyl)-7-methyl-6-phenoxy-1H-indole-2-carboxylic acid], for which the IC50 in assay [1] (setting [3]) is 501 nM; on IMP-1 (Imipenemase-1) (setting [4]), 1.58 µM; in assay [2] (setting [5]), 15.8 nM.
